Laboratory results published in patent publication US11229618B2 (Amarin Pharmaceuticals Ireland Limited, priority 2012, dated 2022).
“Also recorded” adds a separate entry of the source.

What was measured:
Format in all cases: in vivo, human
[1] = Phase 1 multidose pharmacokinetic study: total EPA in plasma (LC-MS/MS); settings: for Total EPA in plasma, CL/F: day 28; for mean plasma CL/F of ethyl eicosapentaenoate: human
Method: (§1) A study to characterize the pharmacokinetics of ethyl eicosapentaenoate in plasma and red blood cells after multiple-dose administration of IPE at 2 g per day and 4 g per day was performed in healthy adult male and female humans.
(§2) The study was a phase 1, open-label, randomized, multidose study in healthy, nonsmoking men and women aged>18 and ≤55 years with a body mass index (BMI)>18 and ≤30 kg/m′. Exclusion criteria included use within 6 weeks prior to randomization through study end of any lipid-altering medications or supplements, including statins, niacin at levels of greater than 200 mg/day, fibrates, ezetimibe, bile acid sequestrants, omega-3 fatty acid medications, and supplements or foods enriched with omega-3 fatty acids (no more than 2 servings of fish per week were permitted).
(§3) Following a 14-day screening period, subjects entered a 28-day treatment period and were randomized to one of four IPE dose regimen treatment groups as shown in FIG. 1. Group 1 received IPE 2 g daily (1000-mg capsules; twice-daily [BID] regimen); Group 2 received IPE 4 g daily (1000-mg capsules; BID regimen); Group 3 received IPE 2 g daily (1000-mg capsules; once-daily [QD] regimen); and Group 4 received IPE 2 g daily (500-mg capsules; BID regimen). Treatment was administered orally, with or following a meal in the morning and evening for BID regimens, or in the morning only for the QD regimen. Subjects then entered an 18-day post-treatment pharmacokinetic sampling period.
(§4) Fasting EPA concentrations were measured with a validated liquid chromatography with tandem mass spectrometry (LC-MS/MS) method in plasma and RBCs prior to the morning dose (days 1, 14, 26, 28) and at serial time points (1, 3, 5, 6, 8, 10, 12, 24, 48, 72, 120, 192, 312, and 432 hours) after the morning dose on day 28. After the last dose on day 28, EPA concentrations were followed for 18 days to estimate the expected long half-life of EPA. Total plasma EPA included all EPA forms (unesterified EPA and that incorporated in phospholipids, triacylglycerols, and cholesteryl esters). In RBCs, EPA was measured in the cell membrane, where EPA is mainly incorporated in phospholipids.
(§5) For total EPA in plasma and RBCs, lipids were isolated by acid/methanol/chloroform extraction followed by centrifugation and purified by isohexane and solid-phase extraction after confirmed complete lipid hydrolysis and transmethylation (acid/methanol, 50° C. overnight). For unesterified EPA in plasma, 25 μL of an inhibitor solution (0.5 g sodium fluoride, 1.0 g L-ascorbic acid, and 0.25 g 5-methylisoxazole-3-carboxylic acid per 10 mL water) was included per 1 mL plasma sample to prevent degradation and lipids were isolated by centrifugation after methanol/chloroform extraction (without hydrolysis or methylation) and further purified by protein precipitation and solid-phase extraction. Quantitation utilized linolenic acid as an internal standard and EPA as the standard for the calibration curve; for total plasma EPA, RBC EPA, and unesterified EPA, the lower limits of quantitation were 10 μg/mL, 5 μg/mL, and 50 ng/mL, respectively. EPA concentrations were measured at Charles River Laboratories Ltd (Elphinstone Research Center, Tranent, Edinburgh, Scotland, UK).
(§6) Unless otherwise specified, all reported parameters are based on baseline-subtracted concentrations (baseline is due to EPA derived from dietary sources).

[2] = AAMI 6-week study: safety and tolerability
Method: All randomized subjects that received at least 1 dose of study medication were included in the Safety Population.
Safety evaluations were based on the safety population. Safety and tolerability were assessed in terms of AEs, vital signs, 12-lead ECG, clinical laboratory data, medical history, and study drug compliance. Safety and tolerability data were presented by treatment group.

[3] = Phase 1 multidose pharmacokinetic study: unesterified EPA in plasma (LC-MS/MS); settings: for Unesterified EPA in plasma, CL/F: day 28
Method: as §1, §2, §3, §4, §5, §6

[4] = Group 1: IPE 2 g/d 1 × 1000 mg BID
[5] = Group 2: IPE 4 g/d 2 × 1000 mg BID
[6] = Group 3: IPE 2 g/d 2 × 1000 mg QD
[7] = Group 4: IPE 2 g/d 2 × 500 mg BID
[8] = about 2 g orally twice per day, human

SMILES: CC/C=C\C/C=C\C/C=C\C/C=C\C/C=C\CCCC(=O)OCC [IPE, all-cis eicosa-5,8,11,14,17-pentaenoic acid ethyl ester]
- dose linearity of EPA exposure (dose-normalized AUC and maximum concentration) ([1]; 2 g/day vs 4 g/day (Group 1 vs. Group 2), total plasma, total RBCs, unesterified EPA): Dose linearity was observed; also recorded: dose-proportional
- comparison of exposure between QD and BID regimens ([1]; 2 g/day, Group 1 vs. Group 3): similarity between QD and BID regimens
- comparison of exposure between 1×1000-mg and 2×500-mg formulations ([1]; 2 g/day, Group 1 vs. Group 4): similarity; also recorded: comparable exposures at comparable doses
- Total EPA in plasma, CL/F [1, 4]: 776.4 mL/h
- Total EPA in plasma, CL/F [1, 5]: 683.7 mL/h
- Total EPA in plasma, CL/F [1, 6]: 867.7 mL/h
- Total EPA in plasma, CL/F [1, 7]: 684.5 mL/h
- mean plasma CL/F of ethyl eicosapentaenoate ([1]; about 1 g orally twice per day): about 776.4+/−256.9 mL/h
- mean plasma CL/F of ethyl eicosapentaenoate ([1]; about 2 g orally twice per day): about 683.7+/−280.6 mL/h
- effect of age on AUC0-24hr and maximum concentration of total and unesterified plasma EPA ([1]; graphical examination): no effect of age was observed
- effect of gender on EPA exposure parameters ([1]; in vivo): no consistent gender effect was observed
- TEAEs Definitely Related to the study drug [2]: No TEAEs were Definitely Related
- deaths during the study [2]: no deaths
- nausea Probably Related to the study drug ([2]; 1 g): One subject
- subjects with nausea Possibly Related to the study drug ([2]; 1 g cohort): two
- subjects with nausea Possibly Related to the study drug ([2]; 2 g cohort): one
- serious adverse events ([2]; 2 g treatment group): One SAE
- subjects discontinued due to TEAEs ([2]; 2 g treatment group): 2 subjects
- diarrhea Probably Related to the study drug ([2]; 4 g): Another subject
- subjects with nausea Possibly Related to the study drug ([2]; 4 g cohort): two
- severity and relatedness of most TEAEs ([2]; all groups): mild in severity and unrelated to study drug
- treatment emergent AEs (TEAEs) reported ([2]; ethyl-EPA treatment groups (placebo groups 34 events)): 105 events
- Unesterified EPA in plasma, CL/F [3, 4]: 364,513 mL/hr
- Unesterified EPA in plasma, CL/F [3, 5]: 234,329 mL/hr
- Unesterified EPA in plasma, CL/F [3, 6]: 241,855 mL/hr
- Unesterified EPA in plasma, CL/F [3, 7]: 326,622 mL/hr
- mean plasma CL/F of unesterified eicosapentaenoic acid ([3]; about 1 g orally twice per day, human): about 364,513+/−214,003 mL/h
- mean plasma AUC0-24h of unesterified eicosapentaenoic acid [3, 8]: about 18.4+/−4.6 μg·h/mL
- mean plasma CL/F of unesterified eicosapentaenoic acid [3, 8]: about 234,329+/−81,639 mL/h
- mean plasma Calm of unesterified eicosapentaenoic acid [3, 8]: about 1.06+/−0.56 μg/mL
- mean plasma Cmax of unesterified eicosapentaenoic acid [3, 8]: about 1.4+/−0.41 μg/mL
- mean plasma T1/2 of unesterified eicosapentaenoic acid [3, 8]: about 97.2+/−36.5 hours
- median plasma Tmax of unesterified eicosapentaenoic acid [3, 8]: about 5 hours
